# Experimental data published in patent US20250282736A1, “SMALL MOLECULE MODULATORS OF HUMAN PREGNANE X RECEPTOR” (ST. JUDE CHILDREN'S RESEARCH HOSPITAL, priority 2022, published 2025).
# Key:
# hPXR [1] = molecular target: T1, hPXR (Homo sapiens (Human), UniProt O75469); assay: cell-based hPXR agonistic assay; details: for Agonist (% activation at 10 μM): rifampicin at 10 μM as 100% activation, DMSO (0.3%) as 0%
# hPXR [2] = molecular target: T1, hPXR; assay: cell-based hPXR antagonistic assay; details: for inhibition at 10 µM: read-out: Antagonist (% inhibition at 10 μM)
# hPXR [3] = molecular target: T1, hPXR; assay: cell-based hPXR inverse agonistic assay; details: for inhibition at 10 µM: read-out: Inverse agonist (% inhibition at 10 μM)
# hPXR [4] = molecular target: T1, hPXR; assay: hPXR binding assay; details: for inhibition at 10 µM: read-out: Binding (% inhibition at 10 μM)
# [5] = read-out: Binding (IC50/μM), hPXR binding assay
# T1 sequence (O75469 whole entry): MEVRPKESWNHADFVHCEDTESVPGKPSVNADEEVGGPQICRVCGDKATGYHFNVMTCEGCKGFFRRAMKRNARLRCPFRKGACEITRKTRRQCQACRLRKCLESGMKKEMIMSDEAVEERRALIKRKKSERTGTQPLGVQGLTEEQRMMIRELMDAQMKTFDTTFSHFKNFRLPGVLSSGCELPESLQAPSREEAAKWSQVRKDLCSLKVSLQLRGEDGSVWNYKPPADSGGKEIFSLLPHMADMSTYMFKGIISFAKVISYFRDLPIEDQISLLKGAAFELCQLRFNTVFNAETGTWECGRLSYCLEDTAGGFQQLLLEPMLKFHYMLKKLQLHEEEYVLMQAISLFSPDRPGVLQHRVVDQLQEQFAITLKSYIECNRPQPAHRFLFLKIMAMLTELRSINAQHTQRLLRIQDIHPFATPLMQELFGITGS
SMILES,EC50 (hPXR [1]),Agonist (% activation at 10 μM) (hPXR [1]),IC50 (hPXR [2]),IC50 (hPXR [3]),inhibition at 10 µM (hPXR [4]),IC50 (hPXR [4]; [5]),IC50 (hPXR [4]),inhibition at 10 µM (hPXR [2]),inhibition at 10 µM (hPXR [3])
COc1ccc(Cl)cc1-n1nnc(C(=O)Nc2cc(C(C)(C)C)cc(C(C)(C)C)c2)c1C [F1],> 30000 nM,,240 nM,66 ± 14 nM,67%,0.044 ± 0.016 µM,,102%,93%
"COc1ccc(Cl)cc1-n1nnc(C(=O)Nc2cc(N)cc(C(C)(C)C)c2)c1C [F2, N-(3-amino-5-(tert-butyl)phenyl)-1-(5-chloro-2-methoxyphenyl)-5-methyl-1H-1,2,3-triazole-4-carboxamide]",> 30000 nM,,18200 ± 11100 nM,3620 ± 1740 nM,65%,7.68 ± 1.45 µM,,56%,101%
CCCCNc1cc(NC(=O)c2nnn(-c3cc(Cl)ccc3OC)c2C)cc(C(C)(C)C)c1 [F3],> 30000 nM,,210 nM,62 nM,83%,0.12 µM,,104%,89%
COc1ccc(Cl)cc1-n1nnc(C(=O)Nc2cc(O)cc(C(C)(C)C)c2)c1C [F4],> 30000 nM,,1180 ± 210 nM,290 ± 180 nM,84%,1.64 µM,,104%,101%
CCCCOc1cc(NC(=O)c2nnn(-c3cc(Cl)ccc3OC)c2C)cc(C(C)(C)C)c1 [F6],> 30000 nM,,670 ± 160 nM,220 nM,61%,0.042 ± 0.011 µM,,94%,65%
CCC(C)Oc1ccc(C(C)(C)C)cc1NC(=O)c1nnn(-c2cc(Cl)ccc2OC)c1C (centres unmarked) [F10],360 ± 160 nM,(9 ± 1)%,19 nM,> 30000 nM,90%,0.0076 ± 0.0011 µM,,79%,
COc1ccc(C)cc1-n1nnc(C(=O)Nc2ccc(OC)c(C(C)(C)C)c2)c1C [G3],> 30000 nM,,1700 nM,820 nM,71%,1.08 ± 0.36 µM,,105%,111%
COc1ccc(C)cc1-n1nnc(C(=O)Nc2cc(C(C)(C)C)cc(C(C)(C)C)c2)c1C [G4],> 30000 nM,,200 nM,74 ± 13 nM,74%,0.1 µM,,104%,101%
"COc1ccc(C)cc1-n1nnc(C(=O)Nc2cc(N)cc(C(C)(C)C)c2)c1C [G5, N-(3-amino-5-(tert-butyl)phenyl)-1-(2-methoxy-5-methylphenyl)-5-methyl-1H-1,2,3-triazole-4-carboxamide]",> 30000 nM,,7050 ± 3480 nM,18900 ± 3740 nM,57%,5.62 ± 0.49 µM,,79%,47%
CCCCNc1cc(NC(=O)c2nnn(-c3cc(C)ccc3OC)c2C)cc(C(C)(C)C)c1 [G6],> 30000 nM,,150 nM,44 ± 14 nM,87%,0.25 µM,,104%,79%
"COc1ccc(C)cc1-n1nnc(C(=O)Nc2cc(O)cc(C(C)(C)C)c2)c1C [G7, N-(3-(tert-butyl)-5-hydroxyphenyl)-1-(2-methoxy-5-methylphenyl)-5-methyl-1H-1,2,3-triazole-4-carboxamide]",> 30000 nM,,1310 ± 230 nM,640 nM,81%,2.29 ± 0.83 µM,,103%,75%
CCCCOc1cc(NC(=O)c2nnn(-c3cc(C)ccc3OC)c2C)cc(C(C)(C)C)c1 [G9],> 30000 nM,,400 nM,150 ± 40 nM,62%,0.21 µM,,105%,96%
CCC(C)Oc1ccc(C(C)(C)C)cc1NC(=O)c1nnn(-c2cc(C)ccc2OC)c1C (centres unmarked) [G12],18 nM,(17 ± 1)%,9.4 nM,> 30000 nM,92%,0.0076 ± 0.0031 µM,,73%,

# Now from value to molecule:
EC50 (hPXR [1]),Agonist (% activation at 10 μM) (hPXR [1]),IC50 (hPXR [2]),IC50 (hPXR [3]),inhibition at 10 µM (hPXR [4]),IC50 (hPXR [4]; [5]),IC50 (hPXR [4]),inhibition at 10 µM (hPXR [2]),inhibition at 10 µM (hPXR [3]),SMILES
5160 ± 1100 nM,(24 ± 2)%,> 30000 nM,> 30000 nM,54%,6.94 ± 0.2 µM,,,,"COc1ccc(-n2nnc(C(=O)Nc3ccc(NC(C)=O)c(C(C)(C)C)c3)c2C)cc1 [E2, N-(4-acetamido-3-(tert-butyl)phenyl)-1-(4-methoxyphenyl)-5-methyl-1H-1,2,3-triazole-4-carboxamide]"
860 ± 120 nM,(29 ± 4)%,> 30000 nM,> 30000 nM,,,> 30 µM,,,"COc1ccc(-n2nnc(C(=O)Nc3ccc(N)c(C(C)(C)C)c3)c2C)cc1 [E3, N-(4-amino-3-(tert-butyl)phenyl)-1-(4-methoxyphenyl)-5-methyl-1H-1,2,3-triazole-4-carboxamide]"
> 30000 nM,,> 30000 nM,> 30000 nM,,,> 30 µM,,,COc1ccc(-n2nnc(C(=O)Nc3ccccc3)c2C)cc1 [E4]
4050 ± 1520 nM,(41 ± 3)%,> 30000 nM,> 30000 nM,,,> 30 µM,,,COc1ccc(-n2nnc(C(=O)Nc3cccc(C(C)(C)C)c3)c2C)cc1 [E5]
1440 ± 270 nM,(35 ± 3)%,> 30000 nM,> 30000 nM,,,> 30 µM,,,COc1ccc(-n2nnc(C(=O)Nc3ccc(C(C)(C)C)cc3)c2C)cc1 [E6]
790 ± 260 nM,(29 ± 5)%,> 30000 nM,> 30000 nM,,,> 30 µM,,,COc1ccc(-n2nnc(C(=O)Nc3ccc(C)cc3)c2C)cc1 [E7]
> 30000 nM,,> 30000 nM,> 30000 nM,,,> 30 µM,,,COc1ccc(-n2nnc(C(=O)Nc3cccc(C)c3)c2C)cc1 [E8]
> 30000 nM,,> 30000 nM,> 30000 nM,,,> 30 µM,,,CCCCOc1ccc(C(C)(C)C)cc1NC(=O)c1nnn(-c2ccc(OC)cc2)c1C [E9]
> 30000 nM,,> 30000 nM,> 30000 nM,53%,1.2 ± 0.3 µM,,,,COc1ccc(-n2nnc(C(=O)Nc3cc(C)ccc3OC)c2C)cc1 [E10]
> 30000 nM,,480 ± 140 nM,180 nM,40%,0.14 µM,,103%,80%,COc1cc(NC(=O)c2nnn(-c3cc(Cl)ccc3OC)c2C)cc(C(C)(C)C)c1 [F5]
> 30000 nM,,930 ± 110 nM,480 nM,75%,1.93 ± 0.3 µM,,108%,115%,"COc1ccc(C)cc1-n1nnc(C(=O)Nc2ccc(O)c(C(C)(C)C)c2)c1C [G2, N-(3-(tert-butyl)-4-hydroxyphenyl)-1-(2-methoxy-5-methylphenyl)-5-methyl-1H-1,2,3-triazole-4-carboxamide]"
> 30000 nM,,640 ± 100 nM,200 nM,57%,0.53 µM,,109%,115%,COc1cc(NC(=O)c2nnn(-c3cc(C)ccc3OC)c2C)cc(C(C)(C)C)c1 [G8]
